Laboratory results from US9802943B2, “HIV inhibiting bicyclic pyrimidine derivatives” (Janssen Sciences Ireland UC, priority 2004, dated 2017).

Assays:
[1] = test system: Strain IIIB (wild type HIV-LAI strain); experiment: cellular antiviral assay, wild type HIV; assay type: cell-based; conditions: for EC50: Human immunodeficiency virus 1, IIIB, read-out: pEC50 IIIB (converted)
Method: (§1) Because of the increasing emergence of drug resistant HIV strains, the present compounds were tested for their potency against clinically isolated HIV strains harboring several mutations. These mutations are associated with resistance to reverse transcriptase inhibitors and result in viruses that show various degrees of phenotypic cross-resistance to the currently commercially available drugs such as for instance AZT and delavirdine.
(§2) The antiviral activity of the compound of the present invention has been evaluated in the presence of wild type HIV and HIV mutants bearing mutations at the reverse transcriptase gene. The activity of the compounds is evaluated using a cellular assay and the residual activity is expressed in pEC50 values. The columns IIIB and A-G in the table list the pEC50 values against various strains IIIB, A-G. • Strain IIIB is wild type HIV-LAI strain • Strain A contains mutation Y181C in HIV reverse transcriptase, • Strain B contains mutation K103N in HIV reverse transcriptase, • Strain C contains mutation L100I in HIV reverse transcriptase, • Strain D contains mutation Y188L in HIV reverse transcriptase, • Strain E contains mutations L100I and K103N in HIV reverse transcriptase, • Strain F contains mutations K103N and Y181C in HIV reverse transcriptase, and • Strain G contains mutations L100I, K103N, Y181C, V179I E138G L214F, V278V/I • and A327A/V in HIV reverse transcriptase.

[2] = test system: Strain A (mutation Y181C in HIV reverse transcriptase); experiment: cellular antiviral assay, HIV mutant strain A; assay type: cell-based; conditions: for EC50: Human immunodeficiency virus 1, read-out: pEC50 A (converted)
Method: as §1, §2

[3] = test system: Strain B (mutation K103N in HIV reverse transcriptase); experiment: cellular antiviral assay, HIV mutant strain B; assay type: cell-based; conditions: for EC50: Human immunodeficiency virus 1, read-out: pEC50 B (converted)
Method: as §1, §2

[4] = test system: Strain C (mutation L100I in HIV reverse transcriptase); experiment: cellular antiviral assay, HIV mutant strain C; assay type: cell-based; conditions: for EC50: Human immunodeficiency virus 1, read-out: pEC50 C (converted)
Method: as §1, §2

[5] = test system: Strain D (mutation Y188L in HIV reverse transcriptase); experiment: cellular antiviral assay, HIV mutant strain D; assay type: cell-based; conditions: for EC50: Human immunodeficiency virus 1, read-out: pEC50 D (converted)
Method: as §1, §2

[6] = test system: Strain E (mutations L100I and K103N in HIV reverse transcriptase); experiment: cellular antiviral assay, HIV mutant strain E; assay type: cell-based; conditions: for EC50: Human immunodeficiency virus 1, read-out: pEC50 E (converted)
Method: as §1, §2

[7] = test system: Strain F (mutations K103N and Y181C in HIV reverse transcriptase); experiment: cellular antiviral assay, HIV mutant strain F; assay type: cell-based; conditions: for EC50: Human immunodeficiency virus 1, read-out: pEC50 F (converted)
Method: as §1, §2

[8] = test system: Strain G (mutations L100I, K103N, Y181C, V179I E138G L214F, V278V/I and A327A/V in HIV reverse transcriptase); experiment: cellular antiviral assay, HIV mutant strain G; assay type: cell-based; conditions: for EC50: Human immunodeficiency virus 1, read-out: pEC50 G (converted)
Method: as §1, §2

Structure (SMILES)	EC50 [1] [nM]	EC50 [2] [nM]	EC50 [3] [nM]	EC50 [4] [nM]	EC50 [5] [nM]	EC50 [6] [nM]	EC50 [7] [nM]	EC50 [8] [nM]	melting point [°C]	pEC50 IIIB ([1]; strain IIIB, wild type HIV-LAI)	pEC50 A ([2]; strain A, Y181C)	pEC50 B ([3]; strain B, K103N)	pEC50 C ([4]; strain C, L100I)	pEC50 D ([5]; strain D, Y188L)	pEC50 E ([6]; strain E, L100I and K103N)	pEC50 F ([7]; strain F, K103N and Y181C)	pEC50 G ([8]; strain G, L100I, K103N, Y181C, V179I E138G L214F, V278V/I and A327A/V)
Cc1cc(/C=C/C#N)cc(C)c1-n1cnc2cnc(Nc3ccc(C#N)cc3)nc21 [Compound 20]	0.2	2.51	0.631	0.631	15.8	7.94	39.8	2000	> 250								
C/C(C#N)=C\c1cc(C)c(N2CCc3c(C)nc(Nc4ccc(C#N)cc4)nc32)c(C)c1 [Compound 34]	2	15.8	2.51	3.98	20	15.8	20	3980	105								
CCOC(=O)c1cc(C)c(N2CCc3c(C)nc(Nc4ccc(C#N)cc4)nc32)c(C)c1 [Compound 33]	50.1	2510	126	794	631	3980	3160	12600	92								
Cc1cc(/C=C/C#N)cc(C)c1-n1c(=S)[nH]c2cnc(Nc3ccc(C#N)cc3)nc21 [Compound 31]	1	12.6	2.51	2.51	79.4	398	39.8	15800	> 250								
Cc1nc(Nc2ccc(C#N)cc2)nc2c1CCN2c1c(Cl)cc(C=CC#N)cc1Cl (mixture of isomers) [Compound 7a]										8.7	7.9	8.7	9.1	7.7	8.6	7.7	5.4
